Where two headings read alike, the source gives them in different places.
Target: Protein arginine deiminase 4 (PAD4) (Homo sapiens, UniProt Q9UM07)
Experiment: PAD4 ammonia release assay
Format: biochemical
Procedure, shortened: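 Ammonia release from BAEE substrate (2× mix 600 μM) was measured after 60 min at RT, following 15 min enzyme–compound preincubation (PAD4 2× 20 nM; pH 8.0 HEPES, 2 mM CaCl2, TCEP; 1.25% DMSO). Detection used OPA/DTT/EDTA for 120 min. % inhibition was taken versus reference-compound and DMSO controls; IC50 by four-parameter logistic fit.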

[1] = PAD4 ammonia release assay, BAEE substrate, 60 min at RT, read-out: Average IC50 Abs

Protein arginine deiminase 4 (PAD4), sequence (Q9UM07 whole entry): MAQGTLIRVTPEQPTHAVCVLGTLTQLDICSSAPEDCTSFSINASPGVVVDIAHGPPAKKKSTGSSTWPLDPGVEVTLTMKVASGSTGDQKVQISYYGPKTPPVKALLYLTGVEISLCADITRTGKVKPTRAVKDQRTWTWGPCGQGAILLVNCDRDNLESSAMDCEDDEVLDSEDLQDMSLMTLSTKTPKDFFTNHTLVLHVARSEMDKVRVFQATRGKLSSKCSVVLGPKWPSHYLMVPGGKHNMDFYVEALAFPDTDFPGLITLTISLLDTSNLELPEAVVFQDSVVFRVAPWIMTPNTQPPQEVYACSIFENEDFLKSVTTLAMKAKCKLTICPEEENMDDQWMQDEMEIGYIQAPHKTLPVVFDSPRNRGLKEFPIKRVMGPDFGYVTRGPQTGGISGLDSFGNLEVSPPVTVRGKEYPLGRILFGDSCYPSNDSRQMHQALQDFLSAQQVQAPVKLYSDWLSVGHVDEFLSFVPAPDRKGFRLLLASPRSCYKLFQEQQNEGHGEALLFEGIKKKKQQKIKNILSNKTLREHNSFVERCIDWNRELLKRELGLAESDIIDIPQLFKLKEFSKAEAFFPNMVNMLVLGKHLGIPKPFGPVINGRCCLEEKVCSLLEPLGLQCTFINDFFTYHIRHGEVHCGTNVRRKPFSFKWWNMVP

| SMILES | IC50 [1] | IC50 (PAD4 activity comparison, read-out: PAD4 Ammonia assay IC50) |
| --- | --- | --- |
| COc1cc(C(=O)N2C[C@H]3CC[C@@H]2[C@@H]3N)cc2nc(-c3cc4cccc5c4n3C(C3CC3)CN5)c(C)n12 (stereo partly drawn) [Example 170, ((1R,4R,7R)-7-amino-2-azabicyclo[2.2.1]heptan-2-yl)(2-(3-cyclopropyl-2,3-dihydro-1H-pyrrolo[1,2,3-de]quinoxalin-5-yl)-5-methoxy-3-methylimidazo[1,2-a]pyridin-7-yl)methanone] | > 5 µM |  |
| CC[C@@H]1CNc2cccc3cc(-c4nc5cc(C(=O)N6C[C@H]7CC[C@@H]6[C@@H]7N)cc(F)c5n4C)n1c23 [Example 73, ((1R,4R,7R)-7-amino-2-azabicyclo[2.2.1]heptan-2-yl)(2-((R)-3-ethyl-2,3-dihydro-1H-pyrrolo[1,2,3-de]quinoxalin-5-yl)-7-fluoro-1-methyl-1H-benzo[d]imidazol-5-yl)methanone] | > 5 µM |  |
| COc1cc(C(=O)N2CC3C(N)C3C2)cc2nc(-c3cc4cccc5c4n3CCN5CCCO)n(CC3CC3)c12 (stereo not shown) [Example 54, (6-amino-3-azabicyclo[3.1.0]hexan-3-yl)(1-(cyclopropylmethyl)-2-(1-(3-hydroxypropyl)-2,3-dihydro-1H-pyrrolo[1,2,3-de]quinoxalin-5-yl)-7-methoxy-1H-benzo[d]imidazol-5-yl)methanone] | > 5 µM |  |
| COc1cc(C(=O)N2CCC3(CC3N)C2)cc2nc(-c3cc4cccc5c4n3CCN5CCCO)n(CC3CC3)c12 (stereo not shown) [Example 52, (1-amino-5-azaspiro[2.4]heptan-5-yl)(1-(cyclopropylmethyl)-2-(1-(3-hydroxypropyl)-2,3-dihydro-1H-pyrrolo[1,2,3-de]quinoxalin-5-yl)-7-methoxy-1H-benzo[d]imidazol-5-yl)methanone] | > 5 µM |  |
| COc1cc(C(=O)N2CC3CNC3C2)cc2nc(-c3cc4cccc5c4n3CCN5CCCO)n(CC3CC3)c12 (stereo not shown) [Example 53, (3,6-diazabicyclo[3.2.0]heptan-3-yl)(1-(cyclopropylmethyl)-2-(1-(3-hydroxypropyl)-2,3-dihydro-1H-pyrrolo[1,2,3-de]quinoxalin-5-yl)-7-methoxy-1H-benzo[d]imidazol-5-yl)methanone] | > 5 µM |  |
| COc1cc(C(=O)N2C[C@H](N)C3(CC3)C2)cc2nc(-c3cc4cccc5c4n3CCN5CCCO)n(CC3CC3)c12 [Example 60, (R)-(7-amino-5-azaspiro[2.4]heptan-5-yl)(1-(cyclopropylmethyl)-2-(1-(3-hydroxypropyl)-2,3-dihydro-1H-pyrrolo[1,2,3-de]quinoxalin-5-yl)-7-methoxy-1H-benzo[d]imidazol-5-yl)methanone] | > 5 µM |  |
| CCC1CNc2c(Cl)ccc3cc(-c4nc5cc(C(=O)N6C[C@H]7CC[C@@H]6[C@@H]7N)cc(F)c5n4C)n1c23 (stereo partly drawn) [Example 125, ((1R,4R,7R)-7-amino-2-azabicyclo[2.2.1]heptan-2-yl)(2-(9-chloro-3-ethyl-2,3-dihydro-1H-pyrrolo[1,2,3-de]quinoxalin-5-yl)-7-fluoro-1-methyl-1H-benzo[d]imidazol-5-yl)methanone] | > 5 µM |  |
| CC[C@@H]1CN(CCCO)c2cccc3cc(-c4nc5cc(C(=O)N6C[C@H]7CC[C@@H]6[C@@H]7N)cc(F)c5n4CC)n1c23 [Example 97, ((1R,4R,7R)-7-amino-2-azabicyclo[2.2.1]heptan-2-yl)(1-ethyl-2-((R)-3-ethyl-1-(3-hydroxypropyl)-2,3-dihydro-1H-pyrrolo[1,2,3-de]quinoxalin-5-yl)-7-fluoro-1H-benzo[d]imidazol-5-yl)methanone] | > 5 µM |  |
| COc1cc(C(=O)N2CCC[C@@H](N)C2)cc2nc(-c3cc4cccc5c4n3CCN5CCCNC(C)=O)n(C)c12 [Example 3, (R)—N-(3-(5-(5-(3-aminopiperidine-1-carbonyl)-7-methoxy-1-methyl-1H-benzo[d]imidazol-2-yl)-2,3-dihydro-1H-pyrrolo[1,2,3-de]quinoxalin-1-yl)propyl)acetamide] | 0.5 to 5 µM |  |
| Cn1c(-c2cc3cccc4c3n2[C@H](C2CC2)CN4CCCO)nc2cc(C(=O)N3C[C@H]4CC[C@@H]3[C@@H]4N)cc(F)c21 (single isomer, unassigned) [Example 113] | 0.5 to 5 µM |  |
| CC1COc2cccc3cc(-c4nc5cc(C(=O)N6CCC[C@@H](N)C6)ccc5n4C)n1c23 (stereo partly shown) [B, reference compound] |  | 7.28 µM |
| COc1cc(C(=O)N2C[C@H](N)C[C@@H](F)C2)cc2nc(-c3cc4cccc5c4n3CCN5C(=O)CC#N)n(C)c12 [Example 30, 3-(5-(5-((3R,5R)-3-amino-5-fluoropiperidine-1-carbonyl)-7-methoxy-1-methyl-1H-benzo[d]imidazol-2-yl)-2,3-dihydro-1H-pyrrolo[1,2,3-de]quinoxalin-1-yl)-3-oxopropanenitrile] | > 5 µM |  |

The remaining lines, values ahead:

| IC50 [1] | IC50 (PAD4 activity comparison, read-out: PAD4 Ammonia assay IC50) | SMILES |
| --- | --- | --- |
| 0.5 to 5 µM |  | Cn1c(-c2cc3ccc4c(c3n2CC2CC2)CCNC4)nc2cc(C(=O)N3C[C@H]4CC[C@@H]3[C@@H]4N)cc(F)c21 [Example 151, ((1R,4R,7R)-7-amino-2-azabicyclo[2.2.1]heptan-2-yl)(2-(1-(cyclopropylmethyl)-6,7,8,9-tetrahydro-1H-pyrrolo[2,3-f]isoquinoline-2-yl)-7-fluoro-1-methyl-1H-benzo[d]imidazol-5-yl)methanone] |
| 0.5 to 5 µM |  | Cn1c(-c2cc3cccc4c3n2[C@H](C2CC2)CN4)nc2cc(C(=O)N3C[C@H]4CC[C@@H]3[C@@H]4N)cc(F)c21 (single isomer, unassigned) [Example 109] |
| 0.5 to 5 µM |  | Cn1c(-c2cc3ccc(C#N)c4c3n2[C@H](C2CC2)CN4)nc2cc(C(=O)N3C[C@H]4CC[C@@H]3[C@@H]4N)cc(F)c21 (single isomer, unassigned) [Example 116] |
| 0.5 to 5 µM |  | COc1cc(C(=O)N2CCC[C@@H](N)C2)cc2nc(-c3cc4cccc5c4n3CCN5C3CC(NC(C)=O)C3)n(C)c12 (stereo partly drawn) [Example 33, (R)—N-(3-(5-(5-(3-aminopiperidine-1-carbonyl)-7-methoxy-1-methyl-1H-benzo[d]imidazol-2-yl)-2,3-dihydro-1H-pyrrolo[1,2,3-de]quinoxalin-1-yl)cyclobutyl)acetamide] |
| 0.5 to 5 µM |  | CCC1C(=O)Nc2c(C#N)ccc3cc(-c4nc5cc(C(=O)N6C[C@H]7CC[C@@H]6[C@@H]7N)cc(F)c5n4C)n1c23 (stereo partly drawn) [Example 127, 5-(5-((1R,4R,7R)-7-amino-2-azabicyclo[2.2.1]heptane-2-carbonyl)-7-fluoro-1-methyl-1H-benzo[d]imidazol-2-yl)-3-ethyl-2-oxo-2,3-dihydro-1H-pyrrolo[1,2,3-de]quinoxaline-9-carbonitrile] |
| 0.5 to 5 µM |  | COc1cc(C(=O)N2C[C@H](N)C[C@@H](F)C2)cc2nc(-c3cc4cccc5c4n3CCN5Cc3cnn(C)c3)n(C)c12 [Example 26, ((3R,5R)-3-amino-5-fluoropiperidin-1-yl)(7-methoxy-1-methyl-2-(1-((1-methyl-1H-pyrazol-4-yl)methyl)-2,3-dihydro-1H-pyrrolo[1,2,3-de]quinoxalin-5-yl)-1H-benzo[d]imidazol-5-yl)methanone] |
| 0.1 to 0.5 µM |  | CCC1CN(CC(C)(C)CO)c2cccc3cc(-c4nc5cc(C(=O)N6C[C@H]7CC[C@@H]6[C@@H]7N)cc(F)c5n4C)n1c23 (stereo partly drawn) [Example 89, ((1R,4R,7R)-7-amino-2-azabicyclo[2.2.1]heptan-2-yl)(2-(3-ethyl-1-(3-hydroxy-2,2-dimethylpropyl)-2,3-dihydro-1H-pyrrolo[1,2,3-de]quinoxalin-5-yl)-7-fluoro-1-methyl-1H-benzo[d]imidazol-5-yl)methanone] |
| 0.5 to 5 µM |  | COc1cc(C(=O)N2CCC[C@@H](N)C2)cc2nc(-c3cc4cccc5c4n3CCN5CCCOC(=O)NC3CC3)n(C)c12 [Example 27, (R)-3-(5-(5-(3-aminopiperidine-1-carbonyl)-7-methoxy-1-methyl-1H-benzo[d]imidazol-2-yl)-2,3-dihydro-1H-pyrrolo[1,2,3-de]quinoxalin-1-yl)propyl cyclopropylcarbamate] |
| 0.1 to 0.5 µM |  | CCC1CNc2c(C)ccc3cc(-c4nc5cc(C(=O)N6C[C@H]7CC[C@@H]6[C@@H]7N)cc(F)c5n4C)n1c23 (stereo partly drawn) [Example 132, ((1R,4R,7R)-7-amino-2-azabicyclo[2.2.1]heptan-2-yl)(2-(3-ethyl-9-methyl-2,3-dihydro-1H-pyrrolo[1,2,3-de]quinoxalin-5-yl)-7-fluoro-1-methyl-1H-benzo[d]imidazol-5-yl)methanone] |
| 0.1 to 0.5 µM |  | CN1CCc2c(ccc3cc(-c4nc5cc(C(=O)N6C[C@H]7CC[C@@H]6[C@@H]7N)cc(F)c5n4C)n(CC4CC4)c23)C1 [Example 152, ((1R,4R,7R)-7-amino-2-azabicyclo[2.2.1]heptan-2-yl)(2-(1-(cyclopropylmethyl)-7-methyl-6,7,8,9-tetrahydro-1H-pyrrolo[2,3-f]isoquinolin-2-yl)-7-fluoro-1-methyl-1H-benzo[d]imidazol-5-yl)methanone] |
| 0.5 to 5 µM |  | COc1cc(C(=O)N2C[C@H](N)C[C@@H](F)C2)cc2nc(-c3cc4cccc5c4n3CCN5C(=O)COC(C)=O)n(C)c12 [Example 29, 2-(5-(5-((3R,5R)-3-amino-5-fluoropiperidine-1-carbonyl)-7-methoxy-1-methyl-1H-benzo[d]imidazol-2-yl)-2,3-dihydro-1H-pyrrolo[1,2,3-de]quinoxalin-1-yl)-2-oxoethyl acetate)] |
| 0.5 to 5 µM |  | Cn1c(-c2cc3ccc4c(Cl)c[nH]c4c3n2CC2CC2)nc2cc(C(=O)N3C[C@H]4CC[C@@H]3[C@@H]4N)cc(F)c21 [Example 149, ((1R,4R,7R)-7-amino-2-azabicyclo[2.2.1]heptan-2-yl)(2-(6-chloro-1-(cyclopropylmethyl)-1,8-dihydropyrrolo[3,2-g]indol-2-yl)-7-fluoro-1-methyl-1H-benzo[d]imidazol-5-yl)methanone] |
| 0.5 to 5 µM |  | COc1cc(C(=O)N2C[C@H](N)C[C@@H](F)C2)cc2nc(-c3cc4cccc5c4n3CCN5CCCNC(C)=O)n(C)c12 [Example 1, N-(3-(5-(5-((3R,5R)-3-amino-5-fluoropiperidine-1-carbonyl)-7-methoxy-1-methyl-1H-benzo[d]imidazol-82-yl)-2,3-dihydro-1H-pyrrolo[1,2,3-de]quinoxalin-1-yl)propyl)acetamide] |

Source: patent US20250136607A1 (REGOR PHARMACEUTICALS, INC., priority 2021, published 2025)
